# In paper PMC9917443 (eLife, 2023):
# Entries after “also recorded” stand apart in the source; their conditions may differ.
# Key:
# [1] = tested on: GBR-activated K^+ currents in cultured hippocampal neurons; experiment: K^+ currents in cultured hippocampal neurons (patch-clamp); format: cell-based, mouse
# Description: APP17 signaling through native GBRs may depend on protein-protein interactions that are not preserved in the membrane preparations used for the [^35S]GTPγS binding assay. Therefore, we tested whether APP17 influences GBR-mediated Gβγ signaling to K^+ channels in cultured hippocampal neurons using patch-clamp electrophysiology, which preserves the native environment of receptors ([Schuler et al., 2001]; [Vigot et al., 2006]). […] . Neuronal cultures and HEK293T cells were prepared as described ([Dinamarca et al., 2019]). Coverslips with hippocampal neurons (DIV 12–15) or HEK293T cells were transferred to a chamber containing a low-K^+ bath solution (in mM): 145 NaCl, 4 KCl, 5 HEPES, 5.5 D-glucose, 1 MgCl2, and 1.8 CaCl2 (pH 7.4 adjusted with NaOH). Recordings were performed at room temperature using borosilicate pipettes of 3–5 MΩ resistance tips, filled with K-gluconate-based pipette solution (in mM): 150 K-gluconate, 1.1 EGTA, 10 HEPES, 10 Tris-phosphocreatine, 0.3 NaGTP, and 4 MgATP (pH 7.2 adjusted with KOH). Upon achieving whole-cell access, cells were held in voltage-clamp mode at −70 mV (with no correction for liquid junction potential) and baclofen-induced K^+ currents were induced in a high-K^+ bath solution (in mM): 120 NaCl, 25 KCl, 5 HEPES, 5.5 D-glucose, 1 MgCl2, and 1.8 CaCl2 (pH 7.4 adjusted with NaOH). […] Schaffer collaterals were stimulated at 0.1 Hz with brief current pulses via bipolar Pt/Ir wires. Evoked EPSCs were recorded at –60 mV with a Cs^+-based intracellular solution. Baclofen and peptides were bath applied in standard ACSF at room temperature. We recorded mEPSCs in primary neuronal cultures established from embryonic (E15–17) murine hippocampus at DIV13–16 in the presence of 0.5 μM TTX at room temperature ([Dinamarca et al., 2019]). APP17 (250 nM) and (R)-baclofen (30 μM) were applied via superfusion. Template matching with pClamp 10 software (Molecular Devices) was used to detect individual mEPSCs.
# CA1 pyramidal cells = details: anesthetized mice, two-photon Ca^2+ imaging; ref Rice et al., 2019; cited from earlier work
# Source text: GBRs are composed of a GB1a or GB1b subunit with a GB2 subunit, which generates heterodimeric GB1a/2 and GB1b/2 receptors ([Pin and Bettler, 2016]). GB1a differs from GB1b by the presence of two N-terminal sushi domains (SD1/2). GB1a/2 and GB1b/2 receptors predominantly localize to pre- and postsynaptic sites, respectively ([Vigot et al., 2006]). APP and sAPP bind to SD1 of GB1a ([Schwenk et al., 2016]; [Dinamarca et al., 2019]; [Rice et al., 2019]).
# GB1a/2 receptors [2] = target: T1, GB1a/2 receptors (Homo sapiens, UniProt O75899+Q9UBS5); experiment: PKA luminescence assay (R-RLuc-N / C-RLuc-C) of Gαi signaling in HEK293T cells
# GB1a/2 receptors [3] = target: T1, GB1a/2 receptors; experiment: Ca^2+ mobilization assay (Calcium 6) in HEK293T cells expressing GB1a/2; format: cell-based; set-up: Flag (N); expressed in transfected cells; host or cells: HEK293T cells stably expressing chimeric Gαqi; details: 1 or 10 μM
# T1 sequence (Q9UBS5 15-961 limits assumed): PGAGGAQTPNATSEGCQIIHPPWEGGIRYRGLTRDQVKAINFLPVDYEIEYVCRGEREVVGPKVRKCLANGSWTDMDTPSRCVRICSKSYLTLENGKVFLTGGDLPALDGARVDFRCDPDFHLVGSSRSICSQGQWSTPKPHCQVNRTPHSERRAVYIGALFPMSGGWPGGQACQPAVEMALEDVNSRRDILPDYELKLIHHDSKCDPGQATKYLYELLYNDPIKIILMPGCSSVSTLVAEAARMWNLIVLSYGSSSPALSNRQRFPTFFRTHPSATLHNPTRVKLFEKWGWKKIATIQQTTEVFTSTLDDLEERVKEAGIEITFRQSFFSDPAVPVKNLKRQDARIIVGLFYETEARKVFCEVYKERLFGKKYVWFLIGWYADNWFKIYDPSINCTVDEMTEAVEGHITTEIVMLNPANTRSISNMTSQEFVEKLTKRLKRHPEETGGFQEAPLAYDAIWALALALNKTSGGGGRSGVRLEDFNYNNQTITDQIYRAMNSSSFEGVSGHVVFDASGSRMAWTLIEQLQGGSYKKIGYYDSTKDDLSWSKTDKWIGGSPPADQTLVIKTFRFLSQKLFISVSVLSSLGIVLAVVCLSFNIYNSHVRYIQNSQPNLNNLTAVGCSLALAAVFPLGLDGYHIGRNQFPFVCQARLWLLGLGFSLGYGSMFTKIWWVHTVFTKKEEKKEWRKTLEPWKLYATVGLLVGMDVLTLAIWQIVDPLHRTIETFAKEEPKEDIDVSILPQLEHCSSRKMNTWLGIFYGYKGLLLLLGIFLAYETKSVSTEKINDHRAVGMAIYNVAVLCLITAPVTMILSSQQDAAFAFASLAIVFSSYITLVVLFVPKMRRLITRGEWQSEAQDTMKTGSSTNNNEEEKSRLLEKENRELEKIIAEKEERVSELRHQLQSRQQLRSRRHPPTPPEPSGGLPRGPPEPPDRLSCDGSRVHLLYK
# T1 sequence (O75899 42-941 partner): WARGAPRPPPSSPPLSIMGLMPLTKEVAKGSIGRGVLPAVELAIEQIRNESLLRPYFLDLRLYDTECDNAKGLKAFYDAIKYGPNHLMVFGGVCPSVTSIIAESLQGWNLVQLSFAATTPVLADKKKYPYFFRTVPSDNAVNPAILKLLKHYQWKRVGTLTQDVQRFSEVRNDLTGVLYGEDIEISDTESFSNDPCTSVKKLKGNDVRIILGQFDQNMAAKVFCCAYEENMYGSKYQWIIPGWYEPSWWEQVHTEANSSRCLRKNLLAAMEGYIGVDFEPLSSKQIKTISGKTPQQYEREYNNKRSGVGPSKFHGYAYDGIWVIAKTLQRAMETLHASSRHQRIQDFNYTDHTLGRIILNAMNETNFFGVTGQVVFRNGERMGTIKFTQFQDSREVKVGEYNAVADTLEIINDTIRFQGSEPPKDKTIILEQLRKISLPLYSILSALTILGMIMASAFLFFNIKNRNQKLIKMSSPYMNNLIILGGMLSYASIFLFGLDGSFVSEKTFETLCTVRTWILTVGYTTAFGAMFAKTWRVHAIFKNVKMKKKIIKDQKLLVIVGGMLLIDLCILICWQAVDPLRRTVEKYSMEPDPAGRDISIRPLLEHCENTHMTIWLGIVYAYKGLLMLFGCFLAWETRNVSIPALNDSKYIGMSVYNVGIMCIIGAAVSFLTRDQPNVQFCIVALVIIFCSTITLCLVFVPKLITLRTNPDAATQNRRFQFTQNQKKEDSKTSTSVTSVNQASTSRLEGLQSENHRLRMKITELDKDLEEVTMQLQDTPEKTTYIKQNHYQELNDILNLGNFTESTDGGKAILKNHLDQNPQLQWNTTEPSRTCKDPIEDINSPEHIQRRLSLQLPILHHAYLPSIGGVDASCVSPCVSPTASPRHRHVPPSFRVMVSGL
substance,measurement,setting,value
Ac-DDSDVWWGGADTDYADG-NH2 [APP17],K+ current,"[1]; 5 µM APP17, column graph (left), single values",-1.055
same,baclofen-induced K^+ currents in presence of peptide (in words),[1]; 5 µM peptide + 5 µM baclofen,elicited currents of similar amplitudes as baclofen alone
same,K^+ currents evoked by compound alone (in words),"[1]; 5 µM, -70 mV",did not elicit any currents
same,neuronal activity (in words),CA1 pyramidal cells,suppresses neuronal activity of CA1 pyramidal cells in anesthetized mice; also recorded: inhibited neuronal activity in the hippocampus of anesthetized mice
same,GABA-mediated PKA inactivation in presence of peptide (in words),GB1a/2 receptors [2]; 10 μM peptide,GABA-mediated PKA inactivation was comparable
same,effect of peptide alone on luminescence/receptor activity (in words),GB1a/2 receptors [2]; 10 μM peptide,"no agonistic, inverse agonistic, or antagonistic properties"
same,receptor activity with APP695 in cis (in words),"GB1a/2 receptors [2]; peptide, APP695 in cis",did not significantly alter GB1/2 receptor activity
same,intracellular Ca^2+ mobilization (in words),GB1a/2 receptors [3],did not induce significant Ca^2+ mobilization
